In patent US11324737B1, “Modulating expression level of a gene encoding a heat shock protein by treating a human subject with a nitroxide” (priority 2021, dated 2022):

Key:
[1] = system: HSP90; experiment: Effects of Tempol on gene expression in cardiac tissue of mice, chip-based microarray; assay type: in vivo
Method: To assess the effects of Tempol on gene expression, Tempol was administered to experimental mice at a dose of 5 mg/g of food from 14 months to 31 months after birth. Mice receiving the same food without the addition of Tempol were used as a negative control. At the age of 31 months, the experimental animals were sacrificed and the hearts were surgically removed. The expression of a broad spectrum of genes in the cardiac tissue was assessed using chip-based microarray technology. Such chips are well known in the art and are widely used to assess gene expression.

[2] = system: HSP90; experiment: Treating a human subject with Tempol, serum level of HSP90 following treatment; assay type: in vivo; settings: 2000 mg per day for 180 days
Method: (§1) A 70-kilogram human subject over the age of 65 is identified as having, or known to have, or suspected of having an increased expression level of HSP90. The human subject is administered a dose of 2000 mg of Tempol (or another nitroxide antioxidant) per day for 180 days. This may be administered in a single dose, or may be administered as a number of smaller doses over a 24-hour period: for example, four 500-mg doses at […]. Following treatment, the serum level of HSP90, is decreased.
as §1, with “subject” for “subject over the age of 65”
as §1, with “65 and having a cardiovascular disease” for “65”, “for an increased expression level of HSP90. Or a 70-kilogram human subject over the age of 65 is” for “as having, or”, “have a cardiovascular disease and/or” for “have, or suspected of having an”
as §1, with “at risk” for “over the age”, “developing colorectal cancer” for “65”, “for increased expression level of HSP90. Or a 70-kilogram human subject is” for “as having, or”, “be at risk” for “have, or suspected”, “developing colorectal cancer and/or have” for “having an”, “decreased. […]” for “decreased.”
A 70-kilogram human subject having an infection (e.g., a bacterial, fungal, or viral infection) is identified for increased expression level of HSP90. Or a 70-kilogram human subject is known to have an infection and/or have increased expression level of HSP90. The human subject is administered a dose of 2000 mg of Tempol (or another nitroxide antioxidant) per day for 180 days. This may be administered in a single dose, or may be administered as a number of smaller doses over a 24-hour period: for example, four 500-mg doses at […]. Following treatment, the serum level of HSP90, is decreased.

CC1(C)CC(O)CC(C)(C)N1[O] [Tempol, 4-hydroxy-2,2,6,6-tetramethylpiperidine-1-oxyl]
Fold change (expression of HSP90 in cardiac tissue after Tempol administration) ([1]; Tempol 5 mg/g of food from 14 months to 31 months after birth, vs same food without Tempol, cardiac tissue at 31 months): −2.4 | HSP90 expression in cardiac tissue ([1]; Tempol 5 mg/g of food from 14 to 31 months after birth, cardiac tissue, result in words): statistically significant decrease in expression | serum level of HSP90 following treatment ([2]; Example 2: 70-kilogram human subject over the age of 65 with increased expression level of HSP90): decreased | serum level of HSP90 following treatment ([2]; Example 3: 70-kilogram human subject with increased expression level of HSP90): decreased | serum level of HSP90 following treatment ([2]; Example 4: 70-kilogram human subject over the age of 65 having a cardiovascular disease): decreased | serum level of HSP90 following treatment ([2]; Example 5: 70-kilogram human subject at risk of developing colorectal cancer): decreased | serum level of HSP90 following treatment ([2]; Example 6: 70-kilogram human subject at risk of developing an autoimmune disease (e.g., rheumatoid arthritis)): decreased | serum level of HSP90 following treatment ([2]; Example 7: 70-kilogram human subject at risk of developing a condition due to aging): decreased | serum level of HSP90 following treatment ([2]; Example 8: 70-kilogram human subject at risk of developing a neurodegenerative disease (e.g., Parkinson's Disease)): decreased | serum level of HSP90 following treatment ([2]; Example 9: 70-kilogram human subject having an infection (bacterial, fungal, or viral)): decreased
